Results: patent publication US20120045393A1 (priority 2009, published 2012)
Like-named read-outs stand apart in the source and are kept apart here. Values belong to the molecule of their own block, whether it stands above or below them. Non-standard residues stand in square brackets, D forms with d. Primed or numbered codes have the meaning given here. *: point of attachment. DO3A10CM(3) = metal chelator group attached at the N-terminus (X in table rows); DO3A10CM″ = chelating group at the N-terminus (X in the sequence tables); Bpa = N[C@@H](Cc1ccc(C(=O)c2ccccc2)cc1)C(=O)O; d1Nal = N[C@H](Cc1cccc2ccccc12)C(=O)O; d2Nal = N[C@H](Cc1ccc2ccccc2c1)C(=O)O; Hyp = O=C(O)[C@@H]1C[C@@H](O)CN1; d3Pal = N[C@H](Cc1cccnc1)C(=O)O; His(1-Me) = 1-methylhistidine; DO3A10CM = not defined here; Nicotinoyl = O=C(c1cccnc1)*; Bpa4 = non-natural residue; Amfe4 = not defined here; Bzgly = not defined here; Dcfe4 = not defined here; dCfe4 = not defined here; Afe4 = not defined here; azaGly = NNC(=O)O; Sar = CNCC(=O)O; iPr = CC(C)*

Experiments:
[1] = test system: EFO-27 human ovarian cancer cells (LHRH binding sites); test: Direct binding/uptake of 177Lu-labeled LHRH-II analogs to EFO-27 cells; details: 177Lu-labeled analog, single concentration
Experimental: All reagents and chemicals were obtained from Sigma unless otherwise specified. LHRH analogs and ^177Lu-LHRH-II analogs were prepared by in-house chemists, as described elsewhere in the application. ^177Lu-LHRH-II analogs were not HPLC purified, as they had been prepared using formulation conditions that yielded high RCP without the need for purification. […] The HPLC-purified material was taken in a stabilizing buffer containing 5% lactose, 0.1% L-cysteine hydrochloride and 800 KIU/mL aprotinin and received as a lyophilized product and stored at −70° C. This was reconstituted in distilled water, aliquoted and stored at −70° C. The radioactivity was determined using Microplate Scintillation counter (Wallac Microbeta Trilux).
For the binding assay, EFO-27 cells were seeded onto 96-well clear flat-bottom tissue-culture-treated plates at 15,000/well density in the growth medium and used for assay on day 2 post-seeding. Cells were routinely checked for confluence and contamination and cell count was done occasionally to ensure consistency in cell numbers.
Direct Binding: Direct binding studies were carried out by incubating appropriate ^177Lu-labeled compounds with EFO-27 cells at 4° C. for 1 h followed by washing off the unbound radioactivity. Non-specific binding was determined by incubating the ^177Lu-LHRH-II analogs in the presence of a large excess (30 uM) of cold (unlabeled) LHRH-II analogs. A 96-well plate format was used.

[2] = test system: LHRH binding sites on human ovarian cancer cells (EFO-27);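 note: Cell-associated radioactivity on confluent EFO-27 monolayers in 96-well plates, measured by microplate scintillation counting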
Experimental: The EFO27 human ovarian cancer cells were obtained from the American Type Culture Collection and cultured in growth medium, RPMI 1640 (Cellgro) supplemented with 10% fetal bovine serum. The cultures were maintained in a humidified atmosphere containing 5% CO2/95% air at 37° C. and passaged and harvested routinely using 0.05% trypsin/EDTA.
LHRH compounds were screened in a standard cell-based plate assay for their ability to compete with the radio-iodinated LHRH, [Darg^6, ^125I-Tyr^8,azaGly^10-LHRH-II] ([^125I-Tyr^8]BRU-2477) for binding to cancer cells. […] Briefly, EFO-27 cells were cultured and seeded in 96-well clear flat bottom plates at 30,000/well density in growth medium and were used for the assay at 100% confluence the following day, after a wash with chilled phosphate-buffered saline pH 7.4 (PBS). The binding assay was carried out by incubating cells with [^125I-Tyr^8]BRU-2477 in the absence or presence of varying concentrations of test compounds for 90 min at −10° C. All compounds were diluted in phosphate buffered saline (VWR CAT#45000-434) supplemented with 20 mM HEPES, 0.1% BSA, 0.5 mM PMSF (AEBSF), bacitracin (100 mg/L), pH 7.4. At the end of incubation, cells were washed with PBS and the radioactivity associated with each well was read using a Microplate Scintillation counter. [^125I-Tyr^8]BRU-2477 was custom made by GE Healthcare (Woburn, Mass.) and supplied as freeze-dried powder with a radiochemical purity (RCP) of >95% and specific activity of 2000 Ci/mmol.

[3] = target: LHRH receptor (LHRH binding sites) on EFO-27 human ovarian cancer cells (human); test: competition with [125I-Tyr8]BRU-2477 for binding to EFO-27 cells
[4] = target: LHRH binding sites on EFO-27 human ovarian cancer cells (human); test: competition with [125I-Tyr8]BRU-2477 on EFO-27 cells
[5] = Table 8: N-substituted amino acid at position 1 and Gly as linker, in vitro binding on EFO-27 cells
[6] = Table 13: linker between AA1 and DO3A10CM, EFO-27 cells
[7] = read-out: 125I-LHRH II Competition EC50, Table 24, unlabeled analogs, EFO-27 cells

Molecule: N=C(N)NCCC[C@@H](NC(=O)[C@H](Cc1c[nH]cn1)NC(=O)[C@H](CO)NC(=O)[C@H](Cc1c[nH]c2ccccc12)NC(=O)[C@H](Cc1c[nH]cn1)NC(=O)CN(Cc1ccccc1)C(=O)CNC(=O)CN1CCN(CC(=O)O)CCN(CC(=O)O)CCN(CC(=O)O)CC1)C(=O)N[C@@H](Cc1c[nH]c2ccccc12)C(=O)N[C@@H](Cc1ccc(C(=O)c2ccccc2)cc1)C(=O)N1CCC[C@H]1C(=O)NNC(N)=O [compound 2792]
177Lu-LHRH II Direct binding % Bound [1]: 1.28%
EC50 [2, 5]: 2270 nM
EC50 [2, 6]: 650 nM
EC50 [2, 7]: 1800 nM

Molecule: N=C(N)NCCC[C@@H](NC(=O)[C@H](Cc1c[nH]cn1)NC(=O)[C@H](CO)NC(=O)[C@H](Cc1c[nH]c2ccccc12)NC(=O)[C@H](Cc1c[nH]cn1)NC(=O)[C@@H](Cc1ccc2ccccc2c1)NC(=O)CN1CCN(CC(=O)O)CCN(CC(=O)O)CCN(CC(=O)O)CC1)C(=O)N[C@@H](Cc1c[nH]c2ccccc12)C(=O)N[C@@H](Cc1ccc(C(=O)c2ccccc2)cc1)C(=O)N1CCC[C@H]1C(=O)NNC(N)=O [compound 2666]
177Lu-LHRH II Direct binding % Bound [1]: 13.25%

EC50 [2, 7]: 2990 nM
Molecule: 2741 (DO3A10CM-[Sar][His(1-Me)]WSH[dR]W[Bpa]P[azaGly]-NH2; reading uncertain) [compound 2741]
177Lu-LHRH II Direct binding % Bound [1]: 1.35%

EC50 [2, 7]: > 10000 nM
Molecule: 2440 (DO3A10CM-[Sar]HWSH[dR]WYP[azaGly]-NH2; reading uncertain) [compound 2440]
177Lu-LHRH II Direct binding % Bound [1]: 0.21%

EC50 [2, 7]: 4620 nM
Molecule: 2722 (XHWSHXWXPX; not fully specified; N-methyl) [compound 2722]
177Lu-LHRH II Direct binding % Bound [1]: 0.36%

EC50 [2, 7]: 280 nM
Molecule: 2756 (DO3A10CM-[Sar][Amfe4]WSH[dR]W[Bpa4]P[azaGly]-NH2; reading uncertain) [compound 2756]
177Lu-LHRH II Direct binding % Bound [1]: 5.17%

EC50 [2, 7]: 2260 nM
Molecule: 2725 (XHWSHXWXPX; not fully specified; N-methyl) [compound 2725]
177Lu-LHRH II Direct binding % Bound [1]: 0.41%

Molecule: N=C(N)NCCC[C@H](NC(=O)[C@@H](Cc1ccc2ccccc2c1)NC(=O)CN1CCN(CC(=O)O)CCN(CC(=O)O)CCN(CC(=O)O)CC1)C(=O)N[C@@H](Cc1c[nH]c2ccccc12)C(=O)N[C@@H](CO)C(=O)N[C@@H](Cc1c[nH]cn1)C(=O)N[C@H](CCCNC(=N)N)C(=O)N[C@@H](Cc1c[nH]c2ccccc12)C(=O)N[C@@H](Cc1ccc(C(=O)c2ccccc2)cc1)C(=O)N1CCC[C@H]1C(=O)NNC(N)=O [compound 2813]
177Lu-LHRH II Direct binding % Bound [1]: 18.80%
EC50 [2, 7]: 300 nM

EC50 [2, 7]: > 10000 nM
Molecule: 2742 (XHWSHXWXPX; N-methyl) [compound 2742]
177Lu-LHRH II Direct binding % Bound [1]: 0.125%

EC50 [2, 7]: 2910 nM
Molecule: 2644 (DO3A10CM-G[d2Nal][Dcfe4][d3Pal]SH[dR]WYP[dA]-NH2; reading uncertain) [compound 2644]
177Lu-LHRH II Direct binding % Bound [1]: 2.13%

EC50 [2, 7]: 3690 nM
Molecule: 2812 (DO3A10CM-[d2Nal][Afe4]WSH[dR]W[Bpa]P[azaGly]-NH2; not fully specified; printed as X-Dnal2-Afe4-Trp-Ser-His-Darg-Trp-Bpa4-Pro-azaG-NH2; reading uncertain) [compound 2812]
177Lu-LHRH II Direct binding % Bound [1]: 5.80%

EC50 [2, 7]: 620 nM
Molecule: 2766 (DO3A10CM-G[d1Nal]HWSH[dR]W[Bpa]P[azaGly]-NH2; reading uncertain) [compound 2766]
177Lu-LHRH II Direct binding % Bound [1]: 10.29%

EC50 [2, 7]: 3200 nM
Molecule: 2896 (XHWSHXWXPX; not fully specified; N-methyl) [compound 2896]
177Lu-LHRH II Direct binding % Bound [1]: 0.70%

EC50 [2, 7]: 2010 nM
Molecule: 2624 (XHWSHXWXPX; N-methyl) [compound 2624]
177Lu-LHRH II Direct binding % Bound [1]: 4.03%

Molecule: 2738 (XFWSHXWXPX; N-methyl) [compound 2738]
177Lu-LHRH II Direct binding % Bound [1]: 1.41%

Molecule: CN(CC(=O)N[C@@H](Cc1c[nH]cn1)C(=O)N[C@@H](Cc1c[nH]c2ccccc12)C(=O)N[C@@H](CO)C(=O)N[C@@H](Cc1c[nH]cn1)C(=O)N[C@H](CCCNC(=N)N)C(=O)N[C@@H](Cc1c[nH]c2ccccc12)C(=O)N[C@@H](Cc1ccc(C(=O)c2ccccc2)cc1)C(=O)N1CCC[C@H]1C(=O)NNC(N)=O)C(=O)CN1CCN(CC(=O)O)CCN(CC(=O)O)CCN(CC(=O)O)CC1 [compound 2443]
177Lu-LHRH II Direct binding % Bound [1]: 1.8%
EC50 ([2]; Table 11: modification of amino acid at position 5, EFO-27 cells): 950 nM
EC50 [2, 6]: 950 nM
EC50 [2, 7]: 950 nM

EC50 [2, 7]: 1610 nM
Molecule: 2823 (XHWSHXWXPX; not fully specified; N-methyl) [compound 2823]
177Lu-LHRH II Direct binding % Bound [1]: 1.00%

EC50 [2, 7]: 4550 nM
Molecule: 2721 (XHWSHXWXPX; not fully specified; N-methyl) [compound 2721]
177Lu-LHRH II Direct binding % Bound [1]: 0.79%

EC50 [2]: 240 nM
Molecule: N=C(N)NCCC[C@H](NC(=O)[C@@H](Cc1ccc2ccccc2c1)NC(=O)CN1CCN(CC(=O)O)CCN(CC(=O)O)CCN(CC(=O)O)CC1)C(=O)N[C@@H](Cc1c[nH]c2ccccc12)C(=O)N[C@@H](CO)C(=O)N[C@@H](Cc1c[nH]cn1)C(=O)N[C@H](CCCNC(=N)N)C(=O)N[C@@H](Cc1c[nH]c2ccccc12)C(=O)N[C@@H](Cc1ccc(C(=O)c2ccccc2)cc1)C(=O)N1CCC[C@H]1C(=O)NCCOCCN [compound 2968]
177Lu-LHRH II Direct binding % Bound [1]: 23.5%

Molecule: N=C(N)NCCC[C@@H](NC(=O)[C@H](Cc1c[nH]cn1)NC(=O)[C@H](CO)NC(=O)[C@H](Cc1c[nH]c2ccccc12)NC(=O)[C@H](Cc1c[nH]cn1)NC(=O)CN(CCc1ccc(O)cc1)C(=O)CNC(=O)CN1CCN(CC(=O)O)CCN(CC(=O)O)CCN(CC(=O)O)CC1)C(=O)N[C@@H](Cc1c[nH]c2ccccc12)C(=O)N[C@@H](Cc1ccc(C(=O)c2ccccc2)cc1)C(=O)N1CCC[C@H]1C(=O)NNC(N)=O [compound 2797]
177Lu-LHRH II Direct binding % Bound [1]: 4.64%
EC50 [2, 5]: 450 nM

EC50 [2, 7]: > 10000 nM
Molecule: 2613 (DO3A10CM-G[Sar][Dcfe4][d1Nal]S[Metyr][dK](Nicotinoyl)LK(iPr)P[dA]-NH2; reading uncertain) [compound 2613]
177Lu-LHRH II Direct binding % Bound [1]: 0.17%

EC50 [2, 7]: > 10000 nM
Molecule: 2642 (DO3A10CM-G[d2Nal][Dcfe4][d3Pal]S[Metyr][dK](Nicotinoyl)LK(iPr)[Hyp][dA]-NH2; reading uncertain) [compound 2642]
177Lu-LHRH II Direct binding % Bound [1]: 0.105%

EC50 [3]: 2910 nM
B1: BRU-2644 (peptide)
peptide: {DO3A10CM(3)}-G[d2Nal][dCfe4][d3Pal]SH[dR]WYP[dA]-NH2
modifications: reading uncertain; also: printed as DO3A10CM-Gly-Dnal2-Dcfe4-Dpal3-Ser-His-Darg-Trp-Tyr-Pro-Dala-NH2

EC50 [4]: 1610 nM
EC50 [3]: 1610 nM
Molecule: XHWSHXWXPX (as printed: DO3A10CM-Sar-His-Trp-Ser-His-Darg-Trp-Thy-Pro-azaGly-NH2) [BRU-2823]

EC50 [4]: 4620 nM
EC50 [3]: 4620 nM
Molecule: XHWSHXWXPX (as printed: DO3A10CM-Sar-His-Trp-Ser-His-Darg-Trp-F5fe-Pro-azaGly-NH2) [BRU-2722]

EC50 [4]: 2270 nM
EC50 [3]: 1800 nM
Molecule: DO3A10CM-G[Bzgly]HWSH[dR]W[Bpa]P[azaGly]-NH2 (reading uncertain; also: printed as DO3A10CM-Gly-Bzgly-His-Trp-Ser-His-Darg-Trp-Bpa4-Pro-azaGly-NH2) [BRU-2792]

EC50 [4]: 4550 nM
EC50 [3]: 4550 nM
Molecule: XHWSHXWXPX (as printed: DO3A10CM-Sar-His-Trp-Ser-His-Darg-Trp-Dip-Pro-azaGly-NH2) [BRU-2721]

EC50 [4]: 2260 nM
EC50 [3]: 2260 nM
Molecule: XHWSHXWXPX (as printed: DO3A10CM-Sar-His-Trp-Ser-His-Darg-Trp-Cfe4-Pro-azaGly-NH2) [BRU-2725]

EC50 [3]: 1220 nM
Molecule: XFWSHXWXPX (as printed: DO3A10CM-Sar-Phe-Trp-Ser-His-Darg-Trp-Bpa4-Pro-azaGly-NH2) [BRU-2738]

EC50 [4]: 2990 nM
EC50 [3]: 2990 nM
Molecule: {DO3A10CM″}-[Sar][His(1-Me)]WSH[dR]W[Bpa]P[azaGly]-NH2 [BRU-2741]

EC50 [3]: 3690 nM
B2: BRU-2812 (peptide)
peptide: DO3A10CM-[d2Nal][Afe4]WSH[dR]W[Bpa]P[azaGly]-NH2
modifications: reading uncertain; also: printed as DO3A10CM-Dnal2-Afe4-Trp-Ser-His-Darg-Trp-Bpa4-Pro-azaGly-NH2

EC50 [4]: 980 nM
EC50 [3]: 980 nM
Molecule: XHWSHXWXPX (as printed: DO3A10CM-Dafe4-His-Trp-Ser-His-Darg-Trp-Bpa4-Pro-azaGly-NH2) [BRU-2810]

EC50 [4]: 1420 nM
EC50 [3]: 1420 nM
Molecule: XHWSHXWXPX (as printed: DO3A10CM-Meala-His-Trp-Ser-His-Darg-Trp-Bpa4-Pro-azaGly-NH2) [BRU-2736]

EC50 [4]: 2010 nM
EC50 [3]: 2010 nM
Molecule: XHWSHXWXPX (as printed: DO3A10CM-Sar-His-Trp-Ser-His-Darg-Trp-Nal2-Pro-azaGly-NH2) [BRU-2624]

EC50 [4]: 280 nM
EC50 [3]: 280 nM
Molecule: DO3A10CM-[Sar][Amfe4]WSH[dR]W[Bpa4]P[azaGly]-NH2 (reading uncertain; also: printed as DO3A10CM-Sar-Amfe4-Trp-Ser-His-Darg-Trp-Bpa4-Pro-azaGly-NH2) [BRU-2756]
